Source: patent US11820759B2, “Modulators of chemokine receptors” (CHEMOCENTRYX, INC., priority 2015, dated 2023)

Tested on: IL-23 induced ear swelling
Assay: IL-23 induced ear swelling model for psoriasis
Assay type: in vivo
Settings: C57B1/6 mice; sub-cutaneous, therapeutic dosing after 3 intradermal injections of IL-23; calipers; FIG. 2
Method: An intradermal injection of IL-23 into the ear of mice can cause a swelling of the ear which is CCR6 dependent (Hedrick M. N et. al. J. Clinical Investigation. 2009. 119:2317-2329). C57B1/6 mice were given intradermal injections of IL-23 in the right ear. PBS was given by intradermal injection into the left ear as a control. Compound 1.023 (synthesized in example 6) was dosed by sub-cutaneous route. The compound was dosed in a therapeutic manner, after 3 intradermal injections of IL-23 and upon initiation of moderate ear swelling. The degree of swelling was measured using calipers.

In the case of `COc1ccc(C(=O)O)c(N2Cc3c(Cl)ccc(Nc4c(N[C@@H](c5cc(C)c(C)o5)C(C)(C)C)c(=O)c4=O)c3C2=O)c1` [Compound 1.023, 2-[4-chloro-7-[[2-[[(1R)-1-(4,5-dimethyl-2-furyl)-2,2-dimethyl-propyl]amino]-3,4-dioxo-cyclobuten-1-yl]amino]-1-oxo-isoindolin-2-yl]-4-methoxy-benzoic acid], the “IL-23 induced ear swelling” value is reported as “completely inhibit IL-23 induced ear swelling”.
